In patent US20110065663A1, “ANTI-CANCER COMBINATION THERAPY” (Katholieke Universiteit Leuven, K.U. Leuven R&D, priority 2008, published 2011):
Where two headings read alike, the source gives them in different places.

Tests used:
[1] = target: T1, E. coli TP (Escherichia coli, UniProt P07650); test: Enzyme activity assay with recombinant E. coli TP (positive control); type: biochemical; settings: 0.025 U TP, 200 μM substrate
T1 construct: purchased Sigma
Procedure: (§1) The TP activity of M. hyorhinis and the conversion of dThd, FdUrd, 5′DFUR and TFT to thymine, 5FU, 5FU or TF-thymine respectively were measured by high-pressure liquid chromatography (HPLC) analysis. MCF-7 and MCF-7/HYOR cells were seeded at a density of 20,000 cells/cm^2 in DMEM with 10% FBS. Four days later, the medium was collected and cleared by centrifugation at 1,400 rpm. For some experiments, the medium of MCF-7/HYOR cells was filtered using a 0.1 μm micro filter (Acrodisc syringe filter, PALL Corporation, East Hills, N.Y.) to remove the mycoplasmas from the medium. 600 μl of the medium was incubated with 200 μM of substrate (dThd, 5′DFUR, TFT or FdUrd) at 37° C. in the presence or absence of 10 μM TPi. At different time points (i.e. 0, 15, 30, 60, 120 minutes and 16 hours), 100 μl aliquots were withdrawn, transferred to Eppendorf tubes and heated at 95° C. for 3 min. Next, the samples were rapidly cooled on ice, exposed for 20 min to 200 μl ice-cold methanol and cleared by centrifugation at 15,000 rpm for 15 minutes. As a positive control, an enzyme activity assay with E. coli TP (Sigma) was performed. For this reaction, 0.025 U of TP were incubated with 200 μM of substrate in TP-buffer (10 mM Tris-HCl, pH 7.6, 1 mM EDTA, 2 mM potassium phosphate and 150 mM NaCl) in a total volume of 600 μl. Aliquots of 100 μl were withdrawn from the reaction mixture at several time points and treated as described above. The nucleosides were separated from their nucleobases on a reversed-phase RP-8 column (Merck, Darmstadt, Germany) and quantified by HPLC analysis (Aliance 2690, Waters, Milford, Mass.). The separation was performed by a linear gradient from 100% buffer B (50 mM NaH2PO4 and 5 mM heptane sulfonic acid, pH 3.2), to 20% buffer B and 80% acetonitrile. Retention times of thymine and thymidine were respectively 5.1 and 10.8 minutes. UV-based detection of all nucleosides was performed at 267 nm.

[2] = test system: MCF-7 cells; test: Tumor cell proliferation assay, uninfected MCF-7 cells; type: cell-based, human; settings: Homo sapiens, uninfected MCF-7
Procedure: MCF-7 and MCF-7/HYOR cells were seeded in 48-well plates at 10,000 cells/cm^2. […] of the test compounds (5FU, 5′DFUR, CIdUrd, BrdUrd, IdUrd and TFT) with or without 10 μM TPi were added. The cells were incubated for another 4 days, trypsinized and counted by a Coulter counter (Analis, Suarlée, Belgium). In some experiments, the antibiotic plasmocin was added one or three days before addition of the test compounds.

[3] = test system: M. hyorhinis TP; test: TP activity in the medium of MCF-7/HYOR cell cultures (HPLC, conversion of nucleoside to free base); type: biochemical, Mycoplasma hyorhinis; settings: for Percent conversion of nucleoside to the free pyrimidine base in MCF-7/HYOR medium: 37° C.
Procedure: as §1, with “Retention times of thymine and thymidine were respectively 5.1 and 10.8 minutes.” left out

[4] = Conversion of nucleosides in the medium of uninfected MCF-7 cells; type: biochemical, human; settings: even after 24 hours of incubation; data not shown
Procedure: as §1, with “At different time points (i.e. 0, 15, 30, 60, 120 minutes and 16 hours), 100 μl aliquots were withdrawn, transferred to Eppendorf tubes and heated at 95° C. for 3 min.” left out, “Retention times of thymine and thymidine were respectively 5.1 and 10.8 minutes.” left out

[5] = test system: MCF-7/HYOR cells; test: Tumor cell proliferation assay, M. hyorhinis-infected MCF-7 cells; type: cell-based, human; settings: for IC50: Homo sapiens
Procedure: Mycoplasma hyorhinis (ATCC 17981) was obtained from the American Type Culture Collection (ATCC, Manassas, Va.). The freeze-dried bacteria were reconstituted by adding 1 ml of DMEM. […] The co-culture of MCF-7 cells and M. hyorhinis was maintained under the same conditions as the uninfected MCF-7 cells. […] The cells were incubated for another 4 days, trypsinized and counted by a Coulter counter (Analis, Suarlée, Belgium).

[6] = test system: M. hyorhinis; test: Staining of DNA with Hoechst 33342, growth of M. hyorhinis in MCF-7 cell cultures; type: cell-based, Mycoplasma hyorhinis; settings: 10 μM; 3 days
Procedure: 10,000 cells/cm^2 (MCF-7 and MCF-7/HYOR) were seeded in 8-well chamber slides (Nunc, Roskilde, Denmark). After 24 hours, 10 μM TPi was added and the cells were incubated for an additional 72 hours. Next, the cells were fixed with Carnoy's fixative (1 part glacial acetic acid to 3 parts absolute methanol) for 10 minutes, air-dried and exposed to the DNA-binding dye Hoechst 33342 (Sigma) at a concentration of 0.5 μg/ml for 15 min at room temperature. Next, the cells were washed twice with de-ionised water and covered with mounting medium (‘glycergel’, Dako, Glostrup, Denmark) and a cover slip. Fluorescence was visualised with a Leica TCS SP5 confocal microscope (Leica, Wetzlar, Germany).

[7] = test system: MCF-7/HYOR cells; test: Nucleotide incorporation assay, MCF-7/HYOR compared with MCF-7 cells; type: cell-based, human; settings: 1 μCi radiolabeled compound; FIG. 4
Procedure: MCF-7 and MCF-7/HYOR cells were seeded at 10,000 cells/cm. After 48 hours, cells were treated with 1 μCi of ^3H-labeled nucleoside with or without 10 μM TPi. 16 h later, the medium was removed and the cells were washed twice with PBS. Next, the cells were trypsinized, transferred to Eppendorf tubes and centrifuged for 10 minutes at 1,400 rpm. The pellet was resuspended in 1 ml absolute ice-cold methanol and kept on ice for 20 minutes. After centrifugation for 20 minutes at 13,000 rpm the pellet was washed twice with methanol, resuspended in methanol and transferred to scintillation vials containing 9 ml of Ready safe liquid scintillation reagent (‘Hisafe 3’, Perkin Elmer, Waltham, Mass.). The radioactivity was measured by a Liquid scintillation analyzer (2300 TR, Packard, Canberra, Australia).

[8] = test system: MCF-7/HYOR cell cultures; test: Nucleoside metabolism experiments, distribution of drug-derived radiolabel in MCF-7/HYOR cell cultures; type: cell-based, human; settings: MCF-7/HYOR
Procedure: Next, the cells were trypsinized, transferred to Eppendorf tubes and centrifuged for 10 minutes at 1,400 rpm. The pellet was resuspended in 1 ml absolute ice-cold methanol and kept on ice for 20 minutes. After centrifugation for 20 minutes at 13,000 rpm the pellet was washed twice with methanol, resuspended in methanol and transferred to scintillation vials containing 9 ml of Ready safe liquid scintillation reagent (‘Hisafe 3’, Perkin Elmer, Waltham, Mass.). The radioactivity was measured by a Liquid scintillation analyzer (2300 TR, Packard, Canberra, Australia). […] Next, the cells were incubated in 0.5 ml absolute ice-cold methanol and kept on ice for 20 minutes. After centrifugation for 20 minutes at 13,000 rpm, the supernatant was subjected to HPLC analysis. […] The amount of compound incorporated into nucleic acids was measured as described above.

T1 sequence (P07650 whole entry): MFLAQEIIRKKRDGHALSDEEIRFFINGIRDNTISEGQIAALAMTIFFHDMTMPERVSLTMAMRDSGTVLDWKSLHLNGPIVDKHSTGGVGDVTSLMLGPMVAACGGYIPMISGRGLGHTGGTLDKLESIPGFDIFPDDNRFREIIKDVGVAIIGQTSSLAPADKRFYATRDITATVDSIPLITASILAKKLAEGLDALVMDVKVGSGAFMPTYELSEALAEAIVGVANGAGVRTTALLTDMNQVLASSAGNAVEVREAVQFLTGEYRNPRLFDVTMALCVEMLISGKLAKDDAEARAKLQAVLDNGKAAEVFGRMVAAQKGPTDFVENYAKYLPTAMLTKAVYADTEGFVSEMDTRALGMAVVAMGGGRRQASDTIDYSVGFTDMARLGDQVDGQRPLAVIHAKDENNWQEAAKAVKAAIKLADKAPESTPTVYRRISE

Question: What does the source list for `C[C@H]1O[C@@H](n2cc(F)c(=O)[nH]c2=O)[C@H](O)[C@@H]1O` [5′DFUR, 5-fluoro-5′-deoxyuridine]?
Answer: Percent conversion of nucleoside to the free pyrimidine base, recombinant E. coli TP ([1]; 2 hours): 26%; Percent conversion of nucleoside to the free pyrimidine base, recombinant E. coli TP ([1]; 16 hours): 64%; IC50 ([2]; MCF7, 96 h, no TPi, 4 days, read-out: IC50 MCF-7 As such): > 100 µM; IC50 ([2]; MCF7, with 10 μM TPi, read-out: IC50 MCF-7 +TPi (10 μM)): > 100 µM; Percent conversion of nucleoside to the free pyrimidine base in MCF-7/HYOR medium ([3]; 2 hours, 200 μM substrate): 5%; Percent conversion of nucleoside to the free pyrimidine base in MCF-7/HYOR medium ([3]; 16 hours, 200 μM substrate): 22%; Conversion in the medium of uninfected MCF-7 cells [4]: no conversion; IC50 ([5]; MCF7, read-out: IC50 MCF-7/HYOR +TPi (10 μM)): > 100 µM; IC50 ([5]; MCF7, read-out: IC50 MCF-7/HYOR As such): 3.5 ± 0.53 µM; IC50 ([5]; MCF7, plasmocin 25 μg/ml, 1 day pretreatment, read-out: IC50 MCF-7/HYOR +plasmocin (25 μg/ml) 1 day prior to addition of test compounds): > 100 µM; IC50 ([5]; MCF7, plasmocin 25 μg/ml, 3 days pretreatment, read-out: IC50 MCF-7/HYOR +plasmocin (25 μg/ml) 3 days prior to addition of test compounds): > 100 µM; Ratio (1)/(2) MCF-7/HYOR ([5]; IC50 in the absence of TPi to IC50 in the presence of TPi): <0.035

Question: Which “Effect on the growth of M. hyorhinis in MCF-7 cell cultures” value [6] does the source give for `Cl.N=C1CCCN1Cc1[nH]c(=O)[nH]c(=O)c1Cl` [TPi, 5-chloro-6-(1 [2-iminopyrrolidinyl]methyl)uracil hydrochloride] here?
Answer: not inhibitory

Question: What about the “Inhibition of conversion of dThd, TFT, FdUrd and 5′DFUR to their free bases in MCF-7/HYOR culture medium” value ([3]; 10 μM TPi, 200 μM substrate) of the same molecule?
Answer: completely inhibited

Question: What does the source list for `Cc1cn([C@H]2C[C@H](O)[C@@H](CO)O2)c(=O)[nH]c1=O` [dThd, thymidine]?
Answer: Percent conversion of nucleoside to the free pyrimidine base, recombinant E. coli TP ([1]; 2 hours): 82%; Percent conversion of nucleoside to the free pyrimidine base, recombinant E. coli TP ([1]; 16 hours): 93%; Reduction of incorporation into nucleic acids in infected MCF-7/HYOR cells in comparison with uninfected MCF-7 cells [7]: 85 fold; Percent conversion of nucleoside to the free pyrimidine base in MCF-7/HYOR medium ([3]; 16 hours, 200 μM substrate): 97%; Thymidine degraded into thymine ([3]; within 60 minutes, FIG. 3): almost all; Conversion in the medium of uninfected MCF-7 cells [4]: no conversion; % of drug-derived radiolabel, In medium, Base ([8]; 1 μCi, 16 h): 74.6%; % of drug-derived radiolabel, In medium, Nucleoside ([8]; 1 μCi, 16 h): 11.5%; % of drug-derived radiolabel, In the cytosol of the cells, 5′-diphosphate ([8]; 1 μCi, 16 h): 0.3%; % of drug-derived radiolabel, In the cytosol of the cells, 5′-monophosphate ([8]; 1 μCi, 16 h): 0.6%; % of drug-derived radiolabel, In the cytosol of the cells, 5′-triphosphate ([8]; 1 μCi, 16 h): 0.2%; % of drug-derived radiolabel, In the cytosol of the cells, Nucleoside/nucleobase ([8]; 1 μCi, 16 h): 7.5%; % of drug-derived radiolabel, Incorporatio into DNA/RNA ([8]; 1 μCi, 16 h): 5.3%; Share incorporated into the nucleic acids in the presence of TPi ([8]; in the presence of TPi): almost all
